The target in assay [1] is T1, AT1 C76A/V108C/C289A mutant receptor (Rattus norvegicus, UniProt P25095, C289A/C76A/V108C).
T1 construct: expressed in transfected cells; host or cells: COS1
T1 sequence (P25095 1-359 C76A/V108C/C289A): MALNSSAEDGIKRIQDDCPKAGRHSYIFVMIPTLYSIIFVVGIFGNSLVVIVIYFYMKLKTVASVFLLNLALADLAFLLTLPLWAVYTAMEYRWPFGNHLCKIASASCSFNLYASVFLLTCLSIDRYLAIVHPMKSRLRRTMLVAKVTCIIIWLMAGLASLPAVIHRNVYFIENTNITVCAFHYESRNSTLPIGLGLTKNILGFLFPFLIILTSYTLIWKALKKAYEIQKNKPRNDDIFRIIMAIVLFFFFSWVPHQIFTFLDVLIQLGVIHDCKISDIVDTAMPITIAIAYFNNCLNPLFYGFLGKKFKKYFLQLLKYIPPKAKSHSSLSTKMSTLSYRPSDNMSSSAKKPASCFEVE
The assay is described as follows: competition binding, C76A/V108C/C289A mutant. The note with it: for Kd ratio relative to WT (in parentheses): C76A/V108C/C289A / WT; for Kd: C76A/V108C/C289A, COS1 membranes, read-out: Binding affinity (Kd). How it is done:
(§1) The Kd and Bmax values of receptor binding were determined by ^125I-[Sar^1, Ile^8] […] Membranes expressing the WT or mutant AT1 receptors were incubated with 100 pM ^125I-[Sar^1, Ile^8] […] The binding reaction was terminated by filtering the incubation mixture through Whatman GF/C glass filters, and the residues were extensively washed further with binding buffer. The bound ligand fraction was determined from the counts per minute (cpm) remaining on the membrane. Binding kinetics values were determined as previously described.

The target in assay [2] is T2, AT1 C76A/Y113C/C289A mutant receptor (Rattus norvegicus, UniProt P25095, C289A/C76A/Y113C).
T2 construct: expressed in transfected cells; host or cells: COS1 cells (membranes)
T2 sequence (P25095 1-359 C76A/Y113C/C289A): T1 sequence (P25095 1-359 C76A/V108C/C289A) with C108V, Y113C
As to the kind of experiment: competition binding, C76A/Y113C/C289A mutant. The note with it: for Kd ratio relative to WT (in parentheses): C76A/Y113C/C289A / WT; for Kd: C76A/Y113C/C289A, COS1 membranes, read-out: Binding affinity (Kd). The protocol: as §1

In assay [3] the target is T3, AT1 A106G mutant receptor (Rattus norvegicus, UniProt P25095, A106G).
T3 construct: expressed in transfected cells; host or cells: COS1
T3 sequence (P25095 1-359 A106G): T1 sequence (P25095 1-359 C76A/V108C/C289A) with A76C, A106G, C108V, A289C
As to the kind of experiment: competition binding, A106G mutant. The note with it: for Kd ratio relative to WT (in parentheses): A106G / WT; for Kd: A106G, COS1 membranes, read-out: Binding affinity (Kd). How it is done: as §1

Assay [4] has as its target T4, AT1 F117A mutant receptor (Rattus norvegicus, UniProt P25095, F117A).
T4 construct: expressed in transfected cells; host or cells: COS1
T4 sequence (P25095 1-359 F117A): T1 sequence (P25095 1-359 C76A/V108C/C289A) with A76C, C108V, F117A, A289C
The assay is described as follows: competition binding, F117A mutant. The note with it: for Kd ratio relative to WT (in parentheses): F117A / WT; for Kd: F117A, COS1 membranes, read-out: Binding affinity (Kd). How it is done: as §1

The target in assay [5] is T5, AT1 C76A/A106C/C289A mutant receptor (Rattus norvegicus, UniProt P25095, A106C/C289A/C76A).
T5 construct: expressed in transfected cells; host or cells: COS1
T5 sequence (P25095 1-359 C76A/A106C/C289A): T1 sequence (P25095 1-359 C76A/V108C/C289A) with A106C, C108V
As to the kind of experiment: competition binding, C76A/A106C/C289A mutant. The note with it: for Kd ratio relative to WT (in parentheses): C76A/A106C/C289A / WT; for Kd: C76A/A106C/C289A, COS1 membranes, read-out: Binding affinity (Kd). How it is done:
as §1

The target in assay [6] is T6, AT1 C76A/L112C/C289A mutant receptor (Rattus norvegicus, UniProt P25095, C289A/C76A/L112C).
T6 construct: expressed in transfected cells; host or cells: COS1
T6 sequence (P25095 1-359 C76A/L112C/C289A): T1 sequence (P25095 1-359 C76A/V108C/C289A) with C108V, L112C
As to the kind of experiment: competition binding, C76A/L112C/C289A mutant. The note with it: for Kd ratio relative to WT (in parentheses): C76A/L112C/C289A / WT; for Kd: C76A/L112C/C289A, COS1 membranes, read-out: Binding affinity (Kd). How it is done:
as §1

Results on three compounds are retold here after paper PMC3375280 (PLoS ONE, 2012).

For orientation: Kd means the free concentration of one partner at which half of the binding sites on the other are occupied at equilibrium, for simple one-to-one binding.

Where a chain is given by its changes, count along the chain named.

As to `CCCc1nc(C(C)(C)O)c(C(=O)O)n1Cc1ccc(-c2ccccc2-c2nnn[nH]2)cc1` [Olmesartan, olmesartan, reference compound], the “Kd ratio relative to WT (in parentheses)” value in assay [1] is 14 fold; in assay [2] it was 248 fold; in assay [3], 2.6 fold; in assay [4], 1.1 fold; in assay [5] it was 3.9 fold; in assay [6] it was 2.7 fold. Besides, the Kd in assay [1] was determined as 32 ± 1 nM; in assay [2], 570 ± 197 nM; in assay [3] it was 6.1 ± 2.2 nM; in assay [4], 2.5 ± 1.4 nM; in assay [5] it was 8.9 ± 4 nM; in assay [6] it was 6.1 ± 2.1 nM.
For `CCCc1nc(C(C)(C)O)c(C(N)=O)n1Cc1ccc(-c2ccccc2-c2nnn[nH]2)cc1` [R239470], the “Kd ratio relative to WT (in parentheses)” value was 13 fold in assay [1]; 340 fold in assay [2]; 6.0 fold in assay [3]; 1.9 fold in assay [4]; 5.1 fold in assay [5]; 4.0 fold in assay [6]. The Kd is 10 ± 2 nM in assay [1]; 272 ± 129 nM in assay [2]; 4.8 ± 1.5 nM in assay [3]; 1.5 ± 0.04 nM in assay [4]; 4.1 ± 1 nM in assay [5]; 3.2 ± 1.3 nM in assay [6].
Take `CCCc1nc(C(C)(C)O)c(C(N)=O)n1Cc1ccc(-c2cc(Cc3ccc(O)cc3)ccc2-c2nnn[nH]2)cc1` [R794847]: the “Kd ratio relative to WT (in parentheses)” value in assay [1] amounted to 8 fold; in assay [2], 134 fold; in assay [3], 17 fold; in assay [4], 1.1 fold; in assay [5], 4.0 fold; in assay [6], 1.3 fold. Also, the Kd in assay [1] was found to be 391 ± 54 nM; in assay [2], 6420 ± 2570 nM; in assay [3], 792 ± 202 nM; in assay [4] it was 54 ± 19 nM; in assay [5], 193 ± 73 nM; in assay [6], 62 ± 9 nM.
